Test results taken from publication PMC11079024, “Identification of a family of species-selective complex I inhibitors as potential anthelmintics” (Nature Communications, 2024).
Several values for one entry are separate records, joined by “and”; a condition that tells them apart may be missing. Identical values can stand only once. Like-named read-outs stand apart in the source and are kept apart here.

Legend:
[1] = molecular target: B. taurus (heart) complex I (Bos taurus, UniProt P03887+P17694+P42026); experiment: biochemical; type: biochemical
Chain of B. taurus (heart) complex I (P03887 whole entry): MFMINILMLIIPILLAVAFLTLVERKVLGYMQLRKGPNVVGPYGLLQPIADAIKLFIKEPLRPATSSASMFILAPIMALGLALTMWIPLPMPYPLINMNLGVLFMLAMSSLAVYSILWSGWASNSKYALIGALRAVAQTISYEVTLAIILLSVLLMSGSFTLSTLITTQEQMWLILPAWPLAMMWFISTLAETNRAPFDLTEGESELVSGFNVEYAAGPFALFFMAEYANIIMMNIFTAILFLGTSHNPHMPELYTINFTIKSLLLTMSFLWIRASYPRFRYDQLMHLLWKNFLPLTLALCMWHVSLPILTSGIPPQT
Chain of B. taurus (heart) complex I (P17694 34-463): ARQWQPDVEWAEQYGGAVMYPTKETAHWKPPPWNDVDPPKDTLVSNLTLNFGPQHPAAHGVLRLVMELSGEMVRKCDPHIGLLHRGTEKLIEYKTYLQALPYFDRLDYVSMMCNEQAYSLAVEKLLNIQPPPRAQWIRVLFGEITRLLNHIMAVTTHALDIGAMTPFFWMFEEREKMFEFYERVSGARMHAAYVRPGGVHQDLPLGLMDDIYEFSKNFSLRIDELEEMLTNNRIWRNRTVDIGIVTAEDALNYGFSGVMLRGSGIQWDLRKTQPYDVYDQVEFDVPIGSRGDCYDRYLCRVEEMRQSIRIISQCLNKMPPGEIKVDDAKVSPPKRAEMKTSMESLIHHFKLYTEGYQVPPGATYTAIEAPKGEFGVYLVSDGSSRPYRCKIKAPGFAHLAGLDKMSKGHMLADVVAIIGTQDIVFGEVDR
Chain of B. taurus (heart) complex I (P42026 38-216): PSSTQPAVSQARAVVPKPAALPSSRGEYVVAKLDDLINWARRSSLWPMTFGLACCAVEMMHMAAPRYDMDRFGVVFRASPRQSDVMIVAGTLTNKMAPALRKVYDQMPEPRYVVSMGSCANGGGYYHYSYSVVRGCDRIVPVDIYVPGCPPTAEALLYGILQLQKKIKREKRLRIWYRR
Outline: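 Complex I activity followed as DCIP reduction (600 nm, 30 s reads, 15 min) with 80 μM NADH and 60 μM decylubiquinone in 25 mM KPi pH 7.5 containing 2 μM antimycin A and 2 mM KCN. Freeze-thawed mouse or bovine heart mitochondria at 0.2 mg/mL; initial-rate percent of solvent control, single-point 100 μM or dose-response.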

[2] = molecular target: C. elegans (N2) complex I (NADH:ubiquinone oxidoreductase) (Caenorhabditis elegans, UniProt P24887+Q93873+Q94360); experiment: biochemical; type: biochemical; conditions: wild-type C. elegans mitochondria, read-out: percent (%) in vitro complex I activity relative to solvent control
Chain of C. elegans (N2) complex I (NADH:ubiquinone oxidoreductase) (Q94360 17-199): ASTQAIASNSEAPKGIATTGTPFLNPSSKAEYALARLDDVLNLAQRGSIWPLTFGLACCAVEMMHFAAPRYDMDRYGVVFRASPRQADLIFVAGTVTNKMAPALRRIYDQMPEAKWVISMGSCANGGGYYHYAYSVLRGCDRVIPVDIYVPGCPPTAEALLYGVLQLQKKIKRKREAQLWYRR
Chain of C. elegans (N2) complex I (NADH:ubiquinone oxidoreductase) (P24887 whole entry): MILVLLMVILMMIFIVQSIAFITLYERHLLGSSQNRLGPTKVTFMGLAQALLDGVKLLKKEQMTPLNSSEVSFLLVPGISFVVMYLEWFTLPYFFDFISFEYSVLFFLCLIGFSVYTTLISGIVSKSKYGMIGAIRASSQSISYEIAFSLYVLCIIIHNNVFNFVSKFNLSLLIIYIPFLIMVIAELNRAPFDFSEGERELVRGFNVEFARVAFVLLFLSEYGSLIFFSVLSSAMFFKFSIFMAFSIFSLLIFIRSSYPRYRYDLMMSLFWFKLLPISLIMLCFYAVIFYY
Chain of C. elegans (N2) complex I (NADH:ubiquinone oxidoreductase) (Q93873 31-482): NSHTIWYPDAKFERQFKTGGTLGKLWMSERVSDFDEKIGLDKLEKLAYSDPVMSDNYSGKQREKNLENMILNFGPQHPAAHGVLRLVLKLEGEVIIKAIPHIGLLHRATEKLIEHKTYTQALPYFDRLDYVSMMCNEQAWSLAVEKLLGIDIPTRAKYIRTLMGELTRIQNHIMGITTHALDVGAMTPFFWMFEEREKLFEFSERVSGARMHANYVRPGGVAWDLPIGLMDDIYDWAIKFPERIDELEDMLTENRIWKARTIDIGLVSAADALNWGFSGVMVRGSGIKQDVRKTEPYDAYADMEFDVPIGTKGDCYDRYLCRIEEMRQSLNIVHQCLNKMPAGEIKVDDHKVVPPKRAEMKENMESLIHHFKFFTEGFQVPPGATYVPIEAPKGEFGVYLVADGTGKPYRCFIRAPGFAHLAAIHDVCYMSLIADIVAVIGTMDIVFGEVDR
Outline: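 Complex I rate: initial linear slope of A600 over 15 min, expressed as percent of solvent control. Triple freeze-thawed mitochondria (0.2 mg/mL) in KPi pH 7.5, BSA 3 mg/mL, NADH 80 μM, decylubiquinone 60 μM, DCIP 160 μM, antimycin A, KCN.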

With COc1cc2c(cc1OC)C(C(C)c1ccc(CC(C)C)cc1)=NCC2 (centres unmarked) [NPD10504] the activity at 0.0001 µM ([1]; B. taurus, dose 0.0001 µM, Mean of replicates, read-out: Complex I activity, dose-response data) was 107%, the “Complex I activity, dose-response data” value ([1]; B. taurus, dose 0.0001 µM, individual replicates (Rep)) was 117.793 and 105.069 and 91.702 and 112.227 and the activity at 0.0005 µM ([1]; B. taurus, dose 0.0005 µM, Mean of replicates, read-out: Complex I activity, dose-response data) was 106%. For the same molecule, the “Complex I activity, dose-response data” value ([1]; B. taurus, dose 0.0005 µM, individual replicates (Rep)) was 109.504 and 97.187 and 111.197, the activity at 0.0005 µM ([1]; B. taurus, dose 0.0005 µM, individual replicates (Rep), read-out: Complex I activity, dose-response data) was 106% and the activity at 0.001 µM ([1]; B. taurus, dose 0.001 µM, Mean of replicates, read-out: Complex I activity, dose-response data) was 99.9%. The “Complex I activity, dose-response data” value ([1]; B. taurus, dose 0.001 µM, individual replicates (Rep)) was 98.069 and 105.385 and 87.764 and 108.494, the activity at 0.0025 µM ([1]; B. taurus, dose 0.0025 µM, Mean of replicates, read-out: Complex I activity, dose-response data) was 103% and the “Complex I activity, dose-response data” value ([1]; B. taurus, dose 0.0025 µM, individual replicates (Rep)) was 100.000 and 97.046 and 110.425. For the same molecule, the activity at 0.0025 µM ([1]; B. taurus, dose 0.0025 µM, individual replicates (Rep), read-out: Complex I activity, dose-response data) was 106%, the activity at 0.005 µM ([1]; B. taurus, dose 0.005 µM, Mean of replicates, read-out: Complex I activity, dose-response data) was 95.2% and the “Complex I activity, dose-response data” value ([1]; B. taurus, dose 0.005 µM, individual replicates (Rep)) was 92.608 and 94.796 and 95.624. For the same molecule, the activity at 0.005 µM ([1]; B. taurus, dose 0.005 µM, individual replicates (Rep), read-out: Complex I activity, dose-response data) was 97.7%, the activity at 0.013 µM ([1]; B. taurus, dose 0.013 µM, Mean of replicates, read-out: Complex I activity, dose-response data) was 101% and the “Complex I activity, dose-response data” value ([1]; B. taurus, dose 0.013 µM, individual replicates (Rep)) was 117.931 and 88.068 and 92.546 and 105.663. The activity at 0.025 µM ([1]; B. taurus, dose 0.025 µM, Mean of replicates, read-out: Complex I activity, dose-response data) was 101%, the “Complex I activity, dose-response data” value ([1]; B. taurus, dose 0.025 µM, individual replicates (Rep)) was 94.298 and 94.233 and 109.524 and the activity at 0.025 µM ([1]; B. taurus, dose 0.025 µM, individual replicates (Rep), read-out: Complex I activity, dose-response data) was 107%. For the same molecule, the activity at 0.063 µM ([1]; B. taurus, dose 0.063 µM, Mean of replicates, read-out: Complex I activity, dose-response data) was 90.7%, the “Complex I activity, dose-response data” value ([1]; B. taurus, dose 0.063 µM, individual replicates (Rep)) was 92.397 and 91.561 and 90.734 and the activity at 0.063 µM ([1]; B. taurus, dose 0.063 µM, individual replicates (Rep), read-out: Complex I activity, dose-response data) was 88%. The activity at 0.125 µM ([1]; B. taurus, dose 0.125 µM, Mean of replicates, read-out: Complex I activity, dose-response data) was 83.6%, the “Complex I activity, dose-response data” value ([1]; B. taurus, dose 0.125 µM, individual replicates (Rep)) was 80.676 and 85.091 and 80.824 and the activity at 0.125 µM ([1]; B. taurus, dose 0.125 µM, individual replicates (Rep), read-out: Complex I activity, dose-response data) was 87.9%. For the same molecule, the activity at 0.313 µM ([1]; B. taurus, dose 0.313 µM, Mean of replicates, read-out: Complex I activity, dose-response data) was 98%, the “Complex I activity, dose-response data” value ([1]; B. taurus, dose 0.313 µM, individual replicates (Rep)) was 97.994 and 101.828 and 86.358 and the activity at 0.313 µM ([1]; B. taurus, dose 0.313 µM, individual replicates (Rep), read-out: Complex I activity, dose-response data) was 106%. For the same molecule, the activity at 0.625 µM ([1]; B. taurus, dose 0.625 µM, Mean of replicates, read-out: Complex I activity, dose-response data) was 101%, the “Complex I activity, dose-response data” value ([1]; B. taurus, dose 0.625 µM, individual replicates (Rep)) was 121.834 and 83.881 and 99.417 and 98.267 and the activity at 1.5 µM ([1]; B. taurus, dose 1.5 µM, Mean of replicates, read-out: Complex I activity, dose-response data) was 96.4%. The “Complex I activity, dose-response data” value ([1]; B. taurus, dose 1.5 µM, individual replicates (Rep)) was 115.721 and 89.117 and 89.942 and 90.667, the activity at 3 µM ([1]; B. taurus, dose 3 µM, Mean of replicates, read-out: Complex I activity, dose-response data) was 85.9% and the “Complex I activity, dose-response data” value ([1]; B. taurus, dose 3 µM, individual replicates (Rep)) was 100.146 and 69.610 and 88.192 and 85.467. For the same molecule, the activity at 15 µM ([1]; B. taurus, dose 15 µM, Mean of replicates, read-out: Complex I activity, dose-response data) was 36.5%, the “Complex I activity, dose-response data” value ([1]; B. taurus, dose 15 µM, individual replicates (Rep)) was 38.809 and 32.507 and 35.200 and the activity at 15 µM ([1]; B. taurus, dose 15 µM, individual replicates (Rep), read-out: Complex I activity, dose-response data) was 39.3%. For the same molecule, the activity at 37.5 µM ([1]; B. taurus, dose 37.5 µM, Mean of replicates, read-out: Complex I activity, dose-response data) was 5.69%, the “Complex I activity, dose-response data” value ([1]; B. taurus, dose 37.5 µM, individual replicates (Rep)) was 3.348 and 10.986 and 0.292 and 8.133 and the activity at 75 µM ([1]; B. taurus, dose 75 µM, Mean of replicates, read-out: Complex I activity, dose-response data) was 3.63%. The “Complex I activity, dose-response data” value ([1]; B. taurus, dose 75 µM, individual replicates (Rep)) was 0.000 and 11.602 and 2.933, the IC50 ([1]; heart mitochondria, read-out: B. taurus Complex I IC50) was 11.3 µM and the remaining activity at 0.125 µM ([2]; mean of replicates) was 92.7%. For the same molecule, the remaining activity at 0.125 µM ([2]; single replicate) was 88.8%, the remaining activity at 0.313 µM ([2]; mean of replicates) was 91.5% and the remaining activity at 0.313 µM ([2]; single replicate) was 88.6%. For the same molecule, the remaining activity at 0.625 µM ([2]; mean of replicates) was 100%, the remaining activity at 0.625 µM ([2]; single replicate) was 100% and the remaining activity at 1.5 µM ([2]; mean of replicates) was 78.6%. The remaining activity at 1.5 µM ([2]; single replicate) was 76.6% and the remaining activity at 3 µM ([2]; 3 µM, mean of replicates) was 58.9%.
